Results taken from US20220024921A1, “1,3,4-OXADIAZOLONE COMPOUND AND PHARMACEUTICAL” (NIPPON SHINYAKU CO., LTD., priority 2018, published 2022).
Counter-ions that a name gives are not always drawn.

How the values were obtained:
[1] = target: T1, PIM1 serine/threonine kinase (Homo sapiens, UniProt P11309); assay: PIM1 serine/threonine kinase inhibitory effect; type: biochemical; conditions: PIM1 serine/threonine kinase activity; ATP 40 μM; 30° C., 30 minutes
T1 construct: purchased Carna Bioscience, Inc
Outline: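 Recombinant PIM1 (0.15 μg/ml final) with 0.5 μM biotinylated substrate and 40 μM ATP in pH 7.0 HEPES/MgCl2 buffer, 30 min at 30° C. Compound range was 0.01–10000 nM final, n=2. HTRF detection with streptavidin-XL665 and anti-phospho antibody-cryptate, 1 h; IC50 from non-linear regression of the 665/620 ratio.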

[2] = target: PIM1 transgenic cells (Ba/F3) (Homo sapiens, UniProt P11309); assay: Proliferation inhibitory effect on PIM1 transgenic cells; type: cell-based, mouse; conditions: proliferation inhibition, 72 hours, Cell Counting Kit-8, read-out: PIM1 IC50
From the text: Human PIM1, 2, and 3 genes were inserted into the multi-cloning sites of retrovirus expression vectors pMYs-IRES-GFP, respectively, to prepare gene transfer vectors. Then, each gene transfer vector was introduced into packaging cells PLAT-E derived from a human fetal kidney cell line in the logarithmic growth phase, using a transfection reagent (FuGENE6, Promega Corporation). Since the culture supernatant of PLAT-E after gene transfer contained virus particles for gene transfer, the culture supernatant was collected and used as a medium for gene transfer. The medium for gene transfer was added to a plate coated with RetroNectin, and the plate was incubated to attach the virus particles to the plate. Then, a mouse pro-B cell line Ba/F3 in the logarithmic growth phase was seeded on the plate and infected with the virus to prepare PIM1, 2, or 3 transgenic cells that proliferate in a PIM 1, 2, or 3-dependent manner. The expression of PIM1, 2, or 3 protein in each cell was confirmed by Western blotting.
Each test substance was prepared to 10 mM with dimethylsulfoxide (DMSO), and diluted with DMSO so as to have concentrations of 3000, 1000, 300, 100, 30, 10, 3, and 1 μM. Moreover, each dilution was further diluted 10-fold with distilled water to prepare a test substance solution.
PIM1, 2, 3-expressing cells were seeded on a 96-well plate, and each test substance solution prepared the next day was added such that final concentrations were 10000, 3000, 1000, 300, 100, 30, 10, 3, and 1 nM. 72 hours after the addition, 10 μL of Cell Counting Kit-8 (DOJINDO LABORATORIES) was added to each well. After incubation for 1 to 4 hours, absorbance OD450 at 450 nm was measured. In addition, absorption OD650 at 650 nm as a reference wavelength was measured.
OD450-OD650 for each condition was calculated, and then the inhibition rates when OD450-OD650 of negative control (DMSO only) and OD450-OD650 of Blank (without cells) were set to 0% and 100%, respectively, were calculated. Then, non-linear regression analysis was performed for logarithmic dose and inhibition rate using a two-parameter logistic model to estimate IC50 values.

T1 sequence (P11309 whole entry): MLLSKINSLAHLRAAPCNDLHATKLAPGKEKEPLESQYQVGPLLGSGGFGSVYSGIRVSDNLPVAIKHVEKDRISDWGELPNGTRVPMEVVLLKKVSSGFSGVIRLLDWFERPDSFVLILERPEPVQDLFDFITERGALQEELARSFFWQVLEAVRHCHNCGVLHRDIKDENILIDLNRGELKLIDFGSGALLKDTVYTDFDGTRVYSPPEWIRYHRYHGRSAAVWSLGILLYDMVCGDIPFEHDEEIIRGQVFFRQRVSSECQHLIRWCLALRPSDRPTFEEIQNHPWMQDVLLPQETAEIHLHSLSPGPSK
PIM1 transgenic cells (Ba/F3), sequence (P11309 whole entry, stated change not applied): as the sequence (P11309 whole entry) above

CC1(CCNc2cc(-c3n[nH]c(=O)o3)ccc2C(F)(F)F)CCNCC1 [Example 70, 5-[3-{[2-(4-methylpiperidin-4-yl)ethyl]amino}-4-(trifluoromethyl)phenyl]-1,3,4-oxadiazol-2(3H)-one hydrochloride]
IC50 [1]: 4.2 nM
GI50 [2]: 1700 nM

N[C@H]1CC[C@H](CNc2cc(-c3n[nH]c(=O)o3)ccc2-c2ccccc2)CC1 [Example 71, 5-[2-({[(1r,4r)-4-aminocyclohexyl]methyl}amino)[1,1′-biphenyl]-4-yl]-1,3,4-oxadiazol-2(3H)-one hydrochloride]
IC50 [1]: 140 nM
GI50 [2]: 4200 nM

N[C@@H]1CCCN(CCNc2cc(-c3n[nH]c(=O)o3)ccc2C(F)(F)F)C1 [Example 72, 5-[3-({2-[(3R)-3-aminopiperidin-1-yl]ethyl}amino)-4-(trifluoromethyl)phenyl]-1,3,4-oxadiazol-2(3H)-one dihydrochloride]
IC50 [1]: 8.4 nM
GI50 [2]: 920 nM

N[C@H]1CCCN(CCNc2cc(-c3n[nH]c(=O)o3)ccc2C(F)(F)F)C1 [Example 73, 5-[3-({2-[(3S)-3-aminopiperidin-1-yl]ethyl}amino)-4-(trifluoromethyl)phenyl]-1,3,4-oxadiazol-2(3H)-one dihydrochloride]
IC50 [1]: 21 nM
GI50 [2]: 570 nM

N[C@H]1CC[C@@H](CNc2cc(-c3n[nH]c(=O)o3)ccc2C(F)(F)F)CC1 [Example 74, 5-[3-({[(1s,4s)-4-aminocyclohexyl]methyl}amino)-4-(trifluoromethyl)phenyl]-1,3,4-oxadiazol-2(3H)-one hydrochloride]
IC50 [1]: 2.2 nM
GI50 [2]: 150 nM

C[C@H](Nc1cc(-c2n[nH]c(=O)o2)cc(F)c1Cl)C1CCNCC1 [Example 76, 5-(4-chloro-3-fluoro-5-{[(1S)-1-(piperidin-4-yl)ethyl]amino}phenyl)-1,3,4-oxadiazol-2(3H)-one hydrochloride]
IC50 [1]: 1.9 nM
GI50 [2]: 31 nM

C[C@H](Nc1cc(-c2n[nH]c(=O)o2)ccc1Cl)C1CCNCC1 [Example 77, 5-(4-chloro-3-{[(1S)-1-(piperidin-4-yl)ethyl]amino}phenyl)-1,3,4-oxadiazol-2(3H)-one dihydrochloride]
IC50 [1]: 5.8 nM
GI50 [2]: 180 nM

C[C@H](Nc1cc(-c2n[nH]c(=O)o2)ccc1Br)C1CCNCC1 [Example 78, 5-(4-bromo-3-{[(1S)-1-(piperidin-4-yl)ethyl]amino}phenyl)-1,3,4-oxadiazol-2(3H)-one dihydrochloride]
IC50 [1]: 3.3 nM
GI50 [2]: 170 nM

C[C@H](Nc1cc(-c2n[nH]c(=O)o2)cc(Cl)c1Cl)C1CCNCC1 [Example 79, 5-(3,4-dichloro-5-{[(1S)-1-(piperidin-4-yl)ethyl]amino}phenyl)-1,3,4-oxadiazol-2(3H)-one dihydrochloride]
IC50 [1]: 0.8 nM
GI50 [2]: 53 nM

CC(CC1CCNCC1)Nc1cc(-c2n[nH]c(=O)o2)ccc1C(F)(F)F (stereo not drawn) [Example 81, 5-[3-{[1-(piperidin-4-yl)propan-2-yl]amino}-4-(trifluoromethyl)phenyl]-1,3,4-oxadiazol-2(3H)-one hydrochloride]
IC50 [1]: 4.3 nM
GI50 [2]: 600 nM

C[C@H](Nc1cc(-c2n[nH]c(=O)o2)cc(F)c1Br)C1CCNCC1 [Example 83, 5-(4-bromo-3-fluoro-5-{[(1S)-1-(piperidin-4-yl)ethyl]amino}phenyl)-1,3,4-oxadiazol-2(3H)-one hydrochloride]
IC50 [1]: 1 nM
GI50 [2]: 75 nM

Cc1cc(-c2n[nH]c(=O)o2)cc(N[C@@H](C)C2CCNCC2)c1Cl [Example 84, 5-(4-chloro-3-methyl-5-{[(1S)-1-(piperidin-4-yl)ethyl]amino}phenyl)-1,3,4-oxadiazol-2(3H)-one dihydrochloride]
IC50 [1]: 1.1 nM
GI50 [2]: 36 nM

C[C@H](Nc1cc(-c2n[nH]c(=O)o2)ccc1C#N)C1CCNCC1 [Example 85, 4-(5-oxo-4,5-dihydro-1,3,4-oxadiazol-2-yl)-2-{[(1S)-1-(piperidin-4-yl)ethyl]amino}benzonitrile hydrochloride]
IC50 [1]: 4.7 nM
GI50 [2]: 610 nM

N[C@H]1CC[C@H](CNc2cc(-c3n[nH]c(=O)o3)cc(F)c2Cl)CC1 [Example 86, 5-[3-({[(1r,4r)-4-aminocyclohexyl]methyl}amino)-4-chloro-5-fluorophenyl]-1,3,4-oxadiazol-2(3H)-one hydrochloride]
IC50 [1]: 0.6 nM
GI50 [2]: 61 nM

C[C@H](Nc1c(F)c(-c2n[nH]c(=O)o2)cc(Cl)c1Cl)C1CCNCC1 [Example 87, 5-(4,5-dichloro-2-fluoro-3-{[(1S)-1-(piperidin-4-yl)ethyl]amino}phenyl)-1,3,4-oxadiazol-2(3H)-one hydrochloride]
IC50 [1]: 1.2 nM
GI50 [2]: 64 nM

C[C@H](Nc1c(F)c(-c2n[nH]c(=O)o2)cc(F)c1Cl)C1CCNCC1 [Example 88, 5-(4-chloro-2,5-difluoro-3-{[(1S)-1-(piperidin-4-yl)ethyl]amino}phenyl)-1,3,4-oxadiazol-2(3H)-one hydrochloride]
IC50 [1]: 2.4 nM
GI50 [2]: 110 nM

C[C@H](Nc1cc(-c2n[nH]c(=O)o2)cc(F)c1F)C1CCNCC1 [Example 89, 5-(3,4-difluoro-5-{[(1S)-1-(piperidin-4-yl)ethyl]amino}phenyl)-1,3,4-oxadiazol-2(3H)-one]
IC50 [1]: 5.4 nM
GI50 [2]: 250 nM

C[C@H](Nc1cc(-c2n[nH]c(=O)o2)ccc1C(F)F)C1CCNCC1 [Example 90, 5-[4-(difluoromethyl)-3-{[(1S)-1-(piperidin-4-yl)ethyl]amino}phenyl]-1,3,4-oxadiazol-2(3H)-one]
IC50 [1]: 21 nM
GI50 [2]: 3800 nM

C[C@H](Nc1cc(-c2n[nH]c(=O)o2)cc([N+](=O)[O-])c1Cl)C1CCNCC1 [Example 91, 5-(4-chloro-3-nitro-5-{[(1S)-1-(piperidin-4-yl)ethyl]amino}phenyl)-1,3,4-oxadiazol-2(3H)-one hydrochloride]
IC50 [1]: 1.5 nM
GI50 [2]: 210 nM

C[C@H](Nc1cc(-c2n[nH]c(=O)o2)cc(N)c1Cl)C1CCNCC1 [Example 92, 5-(3-amino-4-chloro-5-{[(1S)-1-(piperidin-4-yl)ethyl]amino}phenyl)-1,3,4-oxadiazol-2(3H)-one dihydrochloride]
IC50 [1]: 2.6 nM
GI50 [2]: 280 nM

Cc1cc(Cl)c(N[C@@H](C)C2CCNCC2)cc1-c1n[nH]c(=O)o1 [Example 94, 5-(4-chloro-2-methyl-5-{[(1S)-1-(piperidin-4-yl)ethyl]amino}phenyl)-1,3,4-oxadiazol-2(3H)-one hydrochloride]
IC50 [1]: 8.4 nM
GI50 [2]: 140 nM

C[C@H](Nc1cc(-c2n[nH]c(=O)o2)c(F)cc1Cl)C1CCNCC1 [Example 95, 5-(4-chloro-2-fluoro-5-{[(1S)-1-(piperidin-4-yl)ethyl]amino}phenyl)-1,3,4-oxadiazol-2(3H)-one hydrochloride]
IC50 [1]: 11 nM
GI50 [2]: 590 nM

C[C@H](Nc1cc(-c2n[nH]c(=O)o2)c(Cl)cc1Cl)C1CCNCC1 [Example 96, 5-(2,4-dichloro-5-{[(1S)-1-(piperidin-4-yl)ethyl]amino}phenyl)-1,3,4-oxadiazol-2(3H)-one hydrochloride]
IC50 [1]: 6.2 nM
GI50 [2]: 380 nM

Cc1c(Cl)cc(-c2n[nH]c(=O)o2)cc1N[C@@H](C)C1CCNCC1 [Example 98, 5-(3-chloro-4-methyl-5-{[(1S)-1-(piperidin-4-yl)ethyl]amino}phenyl)-1,3,4-oxadiazol-2(3H)-one dihydrochloride]
IC50 [1]: 2 nM
GI50 [2]: 79 nM

Cc1c(F)cc(-c2n[nH]c(=O)o2)cc1N[C@@H](C)C1CCNCC1 [Example 99, 5-(3-fluoro-4-methyl-5-{[(1S)-1-(piperidin-4-yl)ethyl]amino}phenyl)-1,3,4-oxadiazol-2(3H)-one dihydrochloride]
IC50 [1]: 3.9 nM
GI50 [2]: 97 nM

C[C@H](Nc1cc(-c2n[nH]c(=O)o2)cc2[nH]ncc12)C1CCNCC1 [Example 100, 5-(4-{[(1S)-1-(piperidin-4-yl)ethyl]amino}-1H-indazol-6-yl)-1,3,4-oxadiazol-2(3H)-one dihydrochloride]
IC50 [1]: 1.9 nM
GI50 [2]: 260 nM

C[C@H](Nc1cc(-c2n[nH]c(=O)o2)cc(C(F)(F)F)c1Cl)C1CCNCC1 [Example 101, 5-[4-chloro-3-{[(1S)-1-(piperidin-4-yl)ethyl]amino}-5-(trifluoromethyl)phenyl]-1,3,4-oxadiazol-2(3H)-one dihydrochloride]
IC50 [1]: 2.1 nM
GI50 [2]: 61 nM
